According to EP4436951B1, “USE OF AURANTIAMIDE ACETATE IN THE TREATMENT OF HYPERTENSION” (Akdeniz Universitesidoner Sermaye Isletme Mudurlugu, priority 2021, dated 2023):

Legend:
erythrocytes = experiment: Erythrocyte deformability by ektacytometer (laser diffraction) after 4-week treatment; assay type: in vivo, Wistar rats; details: 37°C
From the text: (§1) 5 experimental groups were formed to observe the effects of aurantiamide acetate. Eight […] male Wistar rats were used in each group. The experimental groups created are as follows: • 1. Control group, • 2. SHAM operated (the abdominal cavity is opened and closed by suturing again without any procedure) group, • 3. Aurantiamide acetate (ASP) administered group, • 4. Hypertension (HT) group, • 5. Hypertension+aurantiamide acetate (HT+ASP) administered group.
Aurantiamide acetate was applied to the ASP and HT+ASP groups among the experimental groups. A 100 mM stock was prepared by dissolving 10 mg of aurantiamide acetate in 225 µl of dimethyl sulfoxide (DMSO). For 200 g rat, µl of aurantiamide acetate was administered in 100 µl. Weekly 2.5 mg/kg of aurantiamide acetate was administered intraperitoneally for 4 weeks, 0.5 mg/kg daily, 5 days a week. In total, each rat was given 10 mg/kg of aurantiamide acetate. […]
Erythrocyte deformability was measured in the experimental groups. […] Erythrocyte deformability was evaluated by laser diffraction analysis at various fluid shear forces. […] Thus, the deformability of erythrocytes in response to increased shear forces was determined. […] The erythrocyte deformability was calculated by the system as an elongation index. Elongation index (EI) values were measured between nine shear forces (0.30 - 75.02 Pa). […]

[1] = cited from earlier work; for decrease in concentrations: 4 hours after administration; for decrease in concentrations / time to maximum plasma concentration / accumulation in tissues: rats; for decrease in concentrations / accumulation in tissues: oral; for toxic effects: administrations up to 100mg/kg; for time to maximum plasma concentration: oral administration of Portulaca oleracea L extracts
[2] = test system: 2K-1C renovascular hypertension; experiment: Blood pressure by non-invasive tail-cuff method in rats, Goldblatt two kidneys single clip (2K-1C) hypertension model; assay type: in vivo, Wistar rats
From the text: as §1
Hypertension was induced in rats with the Goldblatt model with two kidneys and a single clip (2K-1C). In this model, no operation was performed on the right kidney. The left renal artery was narrowed to 0.22 mm in diameter. In the surgical hypertension model created, renin secretion by the kidney with decreased blood flow led to increased angiotensin II (ANG II) formation and therefore an increase in blood pressure. Sodium excretion by the intact contralateral kidney increases as blood pressure increases (pressure natriuresis), therefore, there was no sodium retention. The rats were anesthetized intraperitoneally before the operation. In the creation of the hypertension model, 90 mg/kg ketamine and 10 mg/kg xylazine were administered intraperitoneally for anesthesia. After anesthesia, the abdomens of the rats were shaved and disinfected with betadine. After disinfection, a midline incision was made and the left kidney was exposed. The left renal artery was isolated from the renal vein, and to induce 2K-1C renovascular hypertension, the circumference of the left renal artery was narrowed gently to 0.22 mm in diameter by 5/0 non-absorbable silicone-coated silk sutures The same procedure was applied to SHAM operated group rats, but the left renal artery was not narrowed. Postoperatively, the peritoneum was sutured with 3/0 absorbable polyglycan suture and the skin layer was sutured with 3/0 non-absorbable silk suture. In the hypertension model, it was waited for 1 week to observe the increase in blood pressure in the hypertension and hypertension+aurantiamide acetate groups, and then blood pressure was measured.
The blood pressures of the animals were measured by the non-invasive tail-cuff method. An occlusive cuff and a piezoelectric impact sensor are placed around the tail. Arterial blood pressure measurements were taken weekly at the same time of day (9:00 am to 12:00 am) to avoid influencing the circadian cycle. Basal blood pressure was measured after delivery of each rat, and blood pressures were recorded regularly every week for 4 weeks until sacrifice. The data acquisition system reported blood pressure (mmHg) as systolic, diastolic, and mean. Each measurement was repeated three times and the average of these three data was taken.
(§2) Aurantiamide acetate was applied to the ASP and HT+ASP groups among the experimental groups. A 100 mM stock was prepared by dissolving 10 mg of aurantiamide acetate in 225 µl of dimethyl sulfoxide (DMSO). For 200 g rat, µl of aurantiamide acetate was administered in 100 µl. Weekly 2.5 mg/kg of aurantiamide acetate was administered intraperitoneally for 4 weeks, 0.5 mg/kg daily, 5 days a week. In total, each rat was given 10 mg/kg of aurantiamide acetate. To eliminate the effects of daily intraperitoneal (i.p.) injection; equal volumes (100 µl) of i.p.DMSO were injected into the rats of control group, SHAM-operated group, and hypertension group. Changes in body weight, blood pressure values, erythrocyte deformability, vascular isolation, and vascular tone were investigated in the experimental groups during the experiment.
Blood pressure values were examined in the experimental groups during the experimental period.

Thoracic Aorta = experiment: Vascular tone of isolated thoracic aorta rings in organ bath after 4-week treatment (KCl, Phe, ACh and SNP protocols); assay type: in vivo, Wistar rats
From the text: as §1, §2
Vascular isolation was investigated in the experimental groups. The rats in all experimental groups were anesthetized with intraperitoneal ketamine/xylazine (45 mg/kg ketamine and 10 mg/kg xylazine) anesthesia at the end of the 4-week experimental period. After their abdomens were opened, blood was drawn from their abdominal aorta to obtain plasma as well as for use in measuring deformability, and rats were sacrificed by anemia. The thoracic aorta was quickly opened and the thoracic aorta was separated from the other tissues, and removed. As soon as the thoracic aorta tissue is removed, it was taken into a beaker containing Krebs solution (110 mM sodium chloride (NaCl), 5 mM potassium chloride (KCI), 24 mM sodium bicarbonate (NaHCO3), 1 mM mono potassium phosphate (KH2PO4), 1 mM magnesium sulfate heptahydrate (MgSO4.7H2O), 2.5 mM calcium chloride (CaCl2), 10 mM glucose, 0.02 mM ethylenediamine tetraacetic acid (EDTA); pH=7.4). After the tissue was washed with cold Krebs, the dissection stage was started. For the microdissection stage, the thoracic aorta, taken in a petri dish containing cold Krebs, is fixed to the medium, and fat and connective tissue were removed from the artery at the appropriate magnification by using a dissecting microscope. The isolated thoracic aorta is divided into rings of appropriate length. In addition, the rest of the aorta tissue was removed and stored under appropriate conditions for histological and biochemical parameters. Vascular tone was evaluated in the experimental groups. Vascular tone in the experimental groups was analyzed as in the previous work of the project team. After the isolated thoracic aorta is divided into 2 - 2.5 mm long rings; it was gasified with a gas mixture containing 95% O2 - 5% CO2, and it was placed in an organ bath with 10 ml of Krebs solution at 37°C and pH 7.4. After the vessel rings are attached to the isometric transducer by means of a tight rope by hanging them on steel wires, they were washed every 15 minutes under 1 gram relaxation tension and rested for a total of 60 minutes. If the tension changed after each wash, attention was paid to bring it back to 1 gram of tension. After a one-hour relaxation tension (rest period), the vitalization stage, which is the prepulse stage, was applied to the vessels. For this process, after applying Krebs solution containing 20 mM potassium chloride (KCI), phenylephrine (Phe) was added at a concentration of 10^-7 M. This process was repeated 3 times in succession. After the vitalization procedure, the vessels were washed with Krebs solution and an additional 30-minute resting period was started. […]

[3] = Change in body weight during the administration period; assay type: in vivo, Wistar rats; details: between the experimental groups, Day 0 and end of 4th week
From the text: as §1
as §2, with “Changes in body weight, blood pressure values, erythrocyte deformability, vascular isolation, and vascular tone were investigated in the experimental groups during the experiment.” left out
The initial weights of the rats were measured in the range of 180-200 g. The weights of each rat before the experiment (Day 0) and after the experiment (at the end of the 4th week) were recorded. […]

[4] = aurantiamide acetate group (no hypertension) vs control and SHAM, p>0.05

CC(=O)OC[C@H](Cc1ccccc1)NC(=O)[C@H](Cc1ccccc1)NC(=O)c1ccccc1 [aurantiamide acetate]
erythrocyte deformability, Elmax values (erythrocytes; [4]): no difference
erythrocyte deformability (erythrocytes; hypertension + aurantiamide acetate group compared to hypertension group, p<0.01): significant increase
decrease in concentrations [1]: approximately 90%
toxic effects [1]: No toxic effects
time to maximum plasma concentration [1]: approximately 12 minutes
accumulation in tissues [1]: no long-term accumulation
mean arterial blood pressure ([2]; ASP group (no hypertension), second week, compared with control and SHAM operated groups, p<0.05, 0.5 mg/kg daily i.p., 5 days a week): significantly lower
mean arterial blood pressure ([2]; ASP group (no hypertension), third week, compared with control group, p<0.05, 0.5 mg/kg daily i.p., 5 days a week): significantly lower
mean arterial blood pressure ([2]; HT+ASP group, last week (week 4), compared to HT group, p<0.001): significant decrease
mean arterial blood pressure ([2]; HT+ASP group, second week, compared to HT group, p<0.001, 0.5 mg/kg daily i.p., 5 days a week): significant decrease
mean arterial blood pressure ([2]; HT+ASP group, second week, compared with control, SHAM and ASP groups, p<0.001): significantly higher
mean arterial blood pressure ([2]; HT+ASP group, third week, compared to HT group, p<0.001): significant decrease
mean arterial blood pressure ([2]; HT+ASP group, third week, compared with ASP group only, p<0.001): significantly higher
mean arterial blood pressure ([2]; HT+ASP group, week 4, no difference from control, SHAM and ASP groups (p>0.05)): reduced to basal levels
mean arterial blood pressure ([2]; within ASP group according to the weeks, p>0.05): did not show a significant difference
ACh-mediated relaxation response (endothelium-dependent) (Thoracic Aorta; [4]): no difference
Phe-mediated contractile response (Thoracic Aorta; [4]): no differences
SNP-mediated relaxation response (endothelium-independent) (Thoracic Aorta; [4]): no statistical difference
KCl-mediated contractile response (Thoracic Aorta; aurantiamide acetate group (no hypertension) vs control, SHAM and hypertension groups, 20, 40 and 80 mM KCl, p>0.05): no differences
Phe-mediated contractile response (Thoracic Aorta; hypertension+aurantiamide acetate group compared to hypertension group, p<0.05 and p<0.001): significantly reduced
SNP-mediated relaxation response (endothelium-independent) (Thoracic Aorta; hypertension+aurantiamide acetate group compared to hypertension group, p>0.05): no difference
KCl-mediated contractile response (Thoracic Aorta; hypertension+aurantiamide acetate group compared to the other groups, increasing KCl concentrations, p<0.001): significantly lower
ACh-mediated relaxation response (endothelium-dependent) (Thoracic Aorta; hypertension+aurantiamide acetate group vs hypertension group, p<0.05 and p<0.01): improvement
body weights before and after [3]: no significant difference

O=C(N[C@@H](Cc1ccccc1)C(=O)N[C@H](CO)Cc1ccccc1)c1ccccc1 [aurantiamide]
decrease in concentrations [1]: approximately 90%
toxic effects [1]: No toxic effects
time to maximum plasma concentration [1]: approximately 12 minutes
accumulation in tissues [1]: no long-term accumulation
